Laboratory results taken from US8927594B2, “Compounds from soft coral, method of preparation and pharmaceutical uses thereof” (National Sun Yat-Sen University, priority 2010, dated 2015).

Tests used:
iNOS = iNOS protein expression in LPS-stimulated RAW264.7 macrophage cells, immunoblot analysis; format: cell-based, mouse; details: for effect on expression of iNOS protein relative to control cells stimulated with LPS only (in words): FIG. 2; for levels of iNOS protein relative to control cells stimulated with LPS only: concentration of 10 mM (so in the source), LPS alone = 100%, mean±SEM, n=6; for effect on expression of inducible nitric oxide synthase of macrophage cells stimulated with LPS (in words, summary): concentration not stated
Experimental: (§1) A mouse macrophage cell line, RAW 264.7, purchased from the American Type Culture Collection (ATCC, No TIB-71) was chosen in the in vitro model. The cells were cultured in DMEM (Dulcbecco/s Modified Eagle medium) containing 10% fetal bovine serum (FBS) and penicillin G (100 U/ml) and streptomycin (100 μg/ml) at 37° C. and 5% CO2. When reaching 80% confluence, the cells were subcultured with trypsin. The cells were subjected to an anti-inflammation assay after subcultured for 36 hours. 3×10^6 RAW264.7 cells were cultured in a 10-cm culture dish and administered with lipopolysaccharide (LPS, 0.01 μg/ml; Sigma L2654). After 16 hours, the cells were collected. In an experiment group, the compound represented by formula 3 was added into the culture dish and followed by LPS before 10 minutes.
(§2) The collected RAW264.7 cells were dissolved with 200 μL of 4° C. lysis buffer (50 mM Tris [pH 7.5], 150 mM NaCl, 1% TritonX-100, 0.1 mM EDTA, 0.1 mM EGTA, 10 μg PMSF, 1 aprotinin, 20 mM NaF, and 0.2 mM Na3VO4). The samples were centrifuged at 25,000 g for 30 minutes at 4° C. for removing the pellet. The supernatant was assayed with Bio-Rad DC protein assay kit (Bio-Rad Laboratories, Hercules, Calif., USA) and the absorbance was read with an ELISA reader (Thermo Electron Corporation, USA) for estimating the protein contents. The calibrated samples with equal volumes were added with a sample buffer (2% SDS, 10% glycerol, 0.1% bromophenol blue, 10% 2-mercaptoethanol, and 50mM Tris) of the same volume. Proteins were separated with 10% SDS-PAGE and transferred to a PVDF membrane ([…], Immobilon-P, Millipore, Bedford, Mass., USA) (1.5 A, 4° C., 2.5 hours). The transferred PVDF membranes were blocked with TTBS (Tris-HCl 20 mM, NaCl 137 mM, pH 7.4 and 0.1% Tween 20) containing 5% skim milk at room temperature for 1 hour and reacted with polyclonal anti-inducible nitric oxide synthase antibody (Transduction Laboratories, Lexington, Ky., USA) or polyclonal anti-cyclooxygenase-2 antibody (Cayman, Ann Arbor, Mich., USA) at room temperature for 3 hours. After washed with TTBS three times, the samples were reacted with HRP-conjugated anti-rabbit IgG antibody (1:2000) at room temperature for 1 hour. After washed with TTBS for three times, an enhanced chemiluminescence detection kit was used for reating with the PVDF membrane and exposed with an X-ray film (Kodak X-OMAT LS, Kodak, Rochester, N.Y., USA) for detecting the protein expression. The relative amount was calculated with Image-Pro plus 4.5 software (Media Cybernetics, Silver Spring, USA). The group added with only LPS was taken as 100%. β-actin (monoclonal antibody, Sigma, St Louis, Mo., USA) was taken as an internal control.

COX-2 = COX-2 protein expression in LPS-stimulated RAW264.7 macrophage cells, immunoblot analysis; format: cell-based, mouse; details: for effect on COX-2 expression with LPS treatment (in words): FIG. 2; for effect on expression of cyclooxygenase-2 of macrophage cells stimulated with LPS (in words, summary): concentration not stated
Experimental: as §1, §2

[1] = Cytotoxicity, MTT colorimetric method, Hep G2; format: cell-based; details: human, Hep G2 cells (hepatocellular carcinoma)
Experimental: (§3) Cell lines were purchased from the American Type Culture Collection (ATCC). Cytotoxicity assays were performed using the MTT [3-(4,5-dimethylthiazol-2-yl)-2,5-diphenyltetrazolium bromide] colorimetric method.

[2] = Cytotoxicity, MTT colorimetric method, Hep 3B; format: cell-based; details: human, Hep 3B cells (hepatocellular carcinoma)
Experimental: as §3

[3] = Cytotoxicity, MTT colorimetric method, MDA-MB-231; format: cell-based; details: human, MDA-MB-231 cells (breast carcinoma)
Experimental: as §3

[4] = Cytotoxicity, MTT colorimetric method, MCF-7; format: cell-based; details: human, MCF-7 cells (breast carcinoma)
Experimental: as §3

[5] = Cytotoxicity, MTT colorimetric method, A549; format: cell-based; details: human, A549 cells (lung carcinoma)
Experimental: as §3

[6] = Cytotoxicity, MTT colorimetric method, Ca9-22; format: cell-based; details: human, Ca9-22 cells (gingival carcinoma)
Experimental: as §3

[7] = 10 μM, RAW264.7 cells + LPS, same experimental condition

Structure (SMILES): O=C(/C=C/c1ccc(O)c(O)c1)OCCc1ccccc1 [CAPE, caffeic acid phenylethyl ester, reference compound]
- level of iNOS, relative intensity (LPS alone = 100%) (iNOS; [7]): 2.5±3.7%
- level of COX-2, relative intensity (LPS alone = 100%) (COX-2; [7]): 67.2±13.4%

Structure (SMILES): C=C1CC[C@@H](O)[C@]2(C)C[C@H](OC(C)=O)[C@@H]3[C@@H]([C@@H](C(C)C)CC[C@@]3(C)O)[C@H]12 [formula 16]
- IC50 [1]: 12.5 mg/L
- IC50 [2]: 9.6 mg/L
- IC50 [3]: 16 mg/L
- IC50 [4]: 9.9 mg/L
- IC50 [5]: 15.3 mg/L
- IC50 [6]: 13.6 mg/L

Structure (SMILES): CCCC(=O)O[C@]1(C)CC[C@H](OC(C)=O)[C@@](C)(O)C[C@H]2O[C@@H]1[C@@H]1[C@@H](C(C)C)[C@H](OC(C)=O)[C@@H](OC(C)=O)[C@@](C)(O)[C@@H]12 [formula 11]
- effect on expression of iNOS protein relative to control cells stimulated with LPS only (in words) (iNOS; 10 μM, RAW264.7 cells + LPS): enhance the expression
- effect on COX-2 expression with LPS treatment (in words) (COX-2; 10 μM, RAW264.7 cells + LPS): enhance the expression

Structure (SMILES): CCCC(=O)O[C@H]1[C@H](C(C)C)[C@@H]2[C@@H]([C@H]3C[C@](C)([S+](C)[O-])CCC[C@@](C)(OC(=O)CCC)[C@@H]2O3)[C@](C)(O)[C@@H]1OC(C)=O (stereo partly shown) [formula 3]
- levels of iNOS protein relative to control cells stimulated with LPS only (iNOS; RAW264.7 cells + LPS): 17.8±4.7%
- effect on expression of inducible nitric oxide synthase of macrophage cells stimulated with LPS (in words, summary) (iNOS): significantly lowered

Structure (SMILES): CCCC(=O)O[C@]1(C)CCC[C@@](C)([S+](C)[O-])C[C@H]2O[C@@H]1[C@H]1[C@@H]2[C@](C)(OC(C)=O)CC[C@@H]1C(C)C (stereo partly shown) [formula 2]
- levels of iNOS protein relative to control cells stimulated with LPS only (iNOS; RAW264.7 cells + LPS): 8.8±1.0%
- effect on expression of inducible nitric oxide synthase of macrophage cells stimulated with LPS (in words, summary) (iNOS): significantly lowered

Structure (SMILES): C/C1=C/[C@@H]2[C@@H](C(C)C)CC[C@@](C)(O)[C@@H]2CC/C(C)=C/CC1 [formula 14]
- effect on expression of iNOS protein relative to control cells stimulated with LPS only (in words) (iNOS; 10 μM, RAW264.7 cells + LPS): significantly reduce
- effect on expression of inducible nitric oxide synthase of macrophage cells stimulated with LPS (in words, summary) (iNOS): significantly reduce
- effect on COX-2 expression with LPS treatment (in words) (COX-2; 10 μM, RAW264.7 cells + LPS): effectively reduce
- effect on expression of cyclooxygenase-2 of macrophage cells stimulated with LPS (in words, summary) (COX-2): effectively reduce

Structure (SMILES): C=C1C[C@H]2O[C@H]([C@@H]3[C@@H](C(C)C)[C@H](OC(=O)CC[S+](C)[O-])[C@@H](OC(C)=O)[C@@](C)(O)[C@@H]32)[C@](C)(OC(=O)CCC)CC[C@@H]1O (stereo partly shown) [formula 4]
- levels of iNOS protein relative to control cells stimulated with LPS only (iNOS; RAW264.7 cells + LPS): 11.3±1.5%
- effect on expression of inducible nitric oxide synthase of macrophage cells stimulated with LPS (in words, summary) (iNOS): significantly lowered
- COX-2 expression relative to control cells stimulated with LPS only (COX-2; concentration of 10 mM (so in the source), RAW264.7 cells + LPS, LPS alone = 100%, mean±SEM, n=6): 7.2±2.5%
- effect on expression of cyclooxygenase-2 of macrophage cells stimulated with LPS (in words, summary) (COX-2): significantly lowered
